Common to all, as to type: cell-based
The test system of test [1] is K562 (Chronic Myeloid Leukemia). Description: Cellular growth inhibition assay (MTT), K562. The following applies: Homo sapiens, Table 1, 40 hr incubation. How it is done:
(§1) For screening purposes, compounds were diluted in 96 well plates at a concentration of 20 μM. Plates were warmed at 37° C. for 30 minutes before assay.
(§2) K562 (Chronic Myeloid Leukemia), PC3 (Prostate Cancer), and DU145 (Prostate Cancer) were obtained from the American Type Culture Collection (ATCC). K562 was grown in RPMI, with 10% FBS with Glutamx added. DU145 cells were cultured in DMED, with 10% FBS and Glutamx and MEM non-essential amino acids added. PC3 cells were grown in F12K medium, with 10% FBS and Glutamx and MEM non-essential amino acids added. All cells were grown at 37° C. in 5% CO2.
(§3) Cell suspensions were prepared by harvesting cells from culture. (Cells used in this test should be in later log phase growth and high viability.) Cells were diluted in correct growth medium to 1.1× final concentration (from 50000 cell/mL to 200,000 cell/mL, depending on cell line).
(§4) Compounds to be tested were added (10 μL, 10× final concentration) to a flat bottom 96-well plate. The cellular suspension (90 μL per well) was added, and the plate incubated for 40 hr at 37° C., 5% CO2. MTT (20 μL per well, 5 mg/mL in PBS) was added and the plates were returned to the incubator for a further 6 hours. Lysis buffer (100 μL per well, 10% SDS, 0.01N HCl) was added and the plate stored in the incubator overnight. The plate was then read at 590 nm.

Test [2] has as its target T1, TelJak2 (BaF3 TELJAK cells, TEL/Jak2 fusion) (Homo sapiens, UniProt O60674).
T1 construct: The regions encompassing the kinase domain of JAK2 (nucleotides 2994-3914); expressed in transfected cells; host or cells: BaF3 cells bearing the pTET-off plasmid, transfected with pTELJAK2 (pTRE2 vector); the other entry of the earlier key: ETV6 (P41212, Transcription factor ETV6)
Nature of the test: Cellular growth inhibition assay (MTT), BaF3 TEL:JAK2 cell line. The following applies: Table 1, 40 hr incubation. How it is done: as §1
(§5) The coding region encompassing nucleotides 1-487 of TEL was amplified by PCR using the oligonucleotides 5TEL (5′-GGAGGATCCTGATCTCTCTCGCTGTGAGAC-3′) (SEQ ID NO: 1) and 3TEL (5′-AGGC GTCGACTTCTTCTTGATGGTTCTG-3′) (SEQ ID NO: 2) and U937 mRNA as template. A BamH I site was incorporated into the 5TEL primer, and a Sal I site was incorporated into the 3TEL primer. The regions encompassing the kinase domain of JAK2 (nucleotides 2994-3914; JAK2F 5′-ACGC GTCGACGGTGCCTTTGAAGACCGGGAT-3 (SEQ ID NO: 3); JAK2R 5′-ATAGTTTAGCGGCCGCTCAGAATGAAGGTCATTT-3′) (SEQ ID NO: 4) and JAK3 (nucleotides 2520-3469; JAK3F 5′-GAAGTCGACTATGCCTGCCAAGACCCCACGATCTT-3′ (SEQ ID NO: 5); JAK3R 5′-GGATCTAGACTATGAAAAGGACAGGGAGTGGTGTTT-3′ (SEQ ID NO: 6)) were generated by PCR using Taq DNA polymerase (Gibco/BRL) and U937 mRNA as template. A Sal I site was incorporated into the forward primer of JAK2 and JAK3, a Not I site was incorporated into the JAK2 reverse primer and a Xba I site was added to the reverse primer of JAK3.
(§6) A TEL/Jak2 fusion was generated by digestion of the TELPCR product with BamH I/Sa1 I, digestion of the JAK2 PCR product with Sa1 I/Not I followed by ligation and subcloning into the mammalian expression Vector pTRE 2 (Clontech) digested with BamH I-Not I (pTELJAK2). For JAK3 Sa1 I/Not I cleaved kinase domain PCR product was ligated with BamH I/Sa1 I cleaved TELproduct followed by ligation into BamH I/Not I cleaved pTRE2 (pTELJAK3).
(§7) The growth factor dependent myelomonocytic cell line BaF3 bearing the pTET-off plasmid (Clontech) was transfected with either pTELJAK2 or pTELJAK3 and the cells selected for factor independent growth. BaF 3 wild type cells were cultured in DMEM 10% FCS, 10% WEHI 3B conditioned medium. BaF3 TELJAK cells were cultured in DMEM 10% Tet-System Approved FBS (without WEHI 3B conditioned medium).
as §3, §4

Test [3] concerns the target T2, TelJak3 (BaF3 TELJAK cells, TEL/JAK3 fusion) (Homo sapiens, UniProt P52333).
T2 construct: For JAK3 Sa1 I/Not I cleaved kinase domain PCR product was ligated with BamH I/Sa1 I cleaved TELproduct; expressed in transfected cells; host or cells: BaF3 cells bearing the pTET-off plasmid, transfected with pTELJAK3 (pTRE2 vector); the other entry of the earlier key: ETV6 (P41212, Transcription factor ETV6)
Description: Cellular growth inhibition assay (MTT), BaF3 TEL:JAK3 cell line. The following applies: Table 1, 40 hr incubation. How it is done:
as §1, §5, §6, §7, §3, §4

Another test concerns DU145 (Prostate Cancer). Description: Cellular growth inhibition assay (MTT), DU145. The following applies: Homo sapiens, DU-145, Table 1, 40 hr incubation. The procedure:
as §1, §2, §3, §4

For the next test, the system named is PC3 (Prostate Cancer). Nature of the test: Cellular growth inhibition assay (MTT), PC3. The following applies: Table 1, 40 hr incubation. How it is done:
as §1, §2, §3, §4

Structures are written as SMILES. Where only a bound is given, the exact number is not on record here.

T1 sequence (O60674 with tags, fused parts or gaps): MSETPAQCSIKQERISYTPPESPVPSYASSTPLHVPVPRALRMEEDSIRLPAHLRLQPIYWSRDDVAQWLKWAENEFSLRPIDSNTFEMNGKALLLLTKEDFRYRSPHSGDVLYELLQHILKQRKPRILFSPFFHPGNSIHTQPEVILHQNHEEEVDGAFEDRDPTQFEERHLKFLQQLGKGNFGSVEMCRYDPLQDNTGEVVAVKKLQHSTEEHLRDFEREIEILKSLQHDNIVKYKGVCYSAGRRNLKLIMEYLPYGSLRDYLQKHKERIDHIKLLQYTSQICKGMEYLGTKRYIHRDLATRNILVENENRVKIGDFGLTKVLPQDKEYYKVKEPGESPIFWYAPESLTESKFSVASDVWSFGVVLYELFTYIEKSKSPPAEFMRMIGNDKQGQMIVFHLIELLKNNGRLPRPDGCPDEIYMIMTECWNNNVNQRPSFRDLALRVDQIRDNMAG
T2 sequence (P52333 with tags, fused parts or gaps): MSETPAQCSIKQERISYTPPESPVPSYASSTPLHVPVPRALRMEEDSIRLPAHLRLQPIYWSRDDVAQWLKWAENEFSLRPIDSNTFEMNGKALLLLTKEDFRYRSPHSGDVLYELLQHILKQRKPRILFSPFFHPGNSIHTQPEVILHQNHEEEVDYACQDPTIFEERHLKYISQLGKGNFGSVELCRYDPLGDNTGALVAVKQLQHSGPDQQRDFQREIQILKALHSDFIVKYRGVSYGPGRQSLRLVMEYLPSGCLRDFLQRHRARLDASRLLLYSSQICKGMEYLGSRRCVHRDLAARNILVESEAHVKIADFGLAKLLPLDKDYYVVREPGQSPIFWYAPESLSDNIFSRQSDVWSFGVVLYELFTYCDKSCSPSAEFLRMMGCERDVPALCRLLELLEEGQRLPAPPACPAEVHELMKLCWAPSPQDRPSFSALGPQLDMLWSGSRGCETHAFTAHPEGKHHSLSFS

For orientation: inhibition means the drop in the measured response relative to a control, in per cent. With `CCCC(Nc1cncc(-c2ccc(CN3CCCCC3)cc2)n1)c1ccccc1` (stereo not drawn), the inhibition at 20 µM in test [1] was less than 50%; in test [2], more than 50%; in test [3], more than 50%; in the test with DU145 (Prostate Cancer) it was less than 50%; with PC3 (Prostate Cancer), less than 50%.

Consider `CCCC(Nc1cncc(-c2ccc(CN3CCOCC3)cc2)n1)c1ccccc1` (stereo not drawn), for which the inhibition at 20 µM is less than 50% in test [1]; more than 50% in test [2]; less than 50% in test [3]; less than 50% in the test on DU145 (Prostate Cancer); less than 50% in the test on PC3 (Prostate Cancer).

In the case of `CCCC(Nc1cncc(-c2ccc(CN3CCN(C)CC3)cc2)n1)c1ccccc1` (stereo not drawn), the inhibition at 20 µM is less than 50% in test [1]; more than 50% in test [2]; more than 50% in test [3]; less than 50% with DU145 (Prostate Cancer); less than 50% in the test with PC3 (Prostate Cancer).

Take `CCCC(Nc1cncc(-c2ccc(OCCCN3CCOCC3)c(OC)c2)n1)c1ccccc1` (stereo not drawn): the inhibition at 20 µM in test [1] was more than 50%; in test [2] it was more than 50%; in test [3] it was more than 50%; in the test on DU145 (Prostate Cancer), less than 50%; in the test with PC3 (Prostate Cancer), more than 50%.

On to `CCCC(Nc1cncc(-c2ccc(NC(=O)N3CCN(C)CC3)c(OC)c2)n1)c1cccnc1` (stereo not drawn), for which the inhibition at 20 µM in test [1] was less than 50%; in test [2], more than 50%; in test [3], more than 50%; with DU145 (Prostate Cancer), less than 50%; in the test on PC3 (Prostate Cancer), more than 50%.

With `CCCC(Nc1cncc(-c2ccc(CNC(=O)C3CCC(=O)N3)cc2)n1)c1ccccc1` (stereo not drawn), the inhibition at 20 µM in test [1] was more than 50%; in test [2], more than 50%; in test [3] it was more than 50%; in the test with DU145 (Prostate Cancer), less than 50%; in the test on PC3 (Prostate Cancer) it was less than 50%.

Regarding `CCCC(Nc1cncc(-c2ccc(OCCCCN3CCOCC3)c(OC)c2)n1)c1ccccc1` (stereo not drawn), the inhibition at 20 µM in test [1] is more than 50%; in test [2], more than 50%; in test [3], more than 50%; in the test on DU145 (Prostate Cancer), less than 50%; with PC3 (Prostate Cancer), less than 50%.

As for `CCCC(Nc1cncc(-c2ccc(CN(C)C)cc2)n1)c1ccccc1` (stereo not drawn), the inhibition at 20 µM in test [1] was more than 50%; in test [2], more than 50%; in test [3], more than 50%; in the test with DU145 (Prostate Cancer), less than 50%; with PC3 (Prostate Cancer), less than 50%.

As for `CCCC(Nc1cncc(-c2ccc(CN3CCC[C@H]3CO)cc2)n1)c1ccccc1` (stereo partly drawn), the inhibition at 20 µM in test [1] is more than 50%; in test [2], more than 50%; in test [3] it was more than 50%; with DU145 (Prostate Cancer), less than 50%; in the test with PC3 (Prostate Cancer) it was less than 50%.

For the compound `CCCC(Nc1cncc(-c2ccc(CN3CCC(O)CC3)cc2)n1)c1ccccc1` (stereo not drawn), the inhibition at 20 µM in test [1] was more than 50%; in test [2] it was more than 50%; in test [3], more than 50%; in the test with DU145 (Prostate Cancer), less than 50%; in the test with PC3 (Prostate Cancer) it was less than 50%.

In the case of `CCCC(Nc1cncc(-c2ccc(C(=O)N3CCN(C)CC3)cc2)n1)c1ccccc1` (stereo not drawn), the inhibition at 20 µM in test [1] was less than 50%; in test [2], more than 50%; in test [3] it was more than 50%; with PC3 (Prostate Cancer), less than 50%.

For the compound `CCCC(Nc1cncc(-c2ccc(C(=O)N3CCOCC3)cc2)n1)c1ccccc1` (stereo not drawn), the inhibition at 20 µM is less than 50% in test [1], more than 50% in test [2], more than 50% in test [3] and less than 50% with PC3 (Prostate Cancer).

As to `CCNC(=O)Nc1ccc(-c2cncc(NC(C)c3cccnc3)n2)cc1OC` (stereo not drawn), the inhibition at 20 µM is more than 50% in test [2], more than 50% in test [3] and less than 50% with PC3 (Prostate Cancer).

`CCCC(Nc1cncc(-c2ccc(OCCCN3CCN(C)CC3)c(OC)c2)n1)c1cccnc1` (stereo not drawn): the inhibition at 20 µM in test [1] was less than 50%; in test [2] it was more than 50%; in test [3], more than 50%; in the test with DU145 (Prostate Cancer), less than 50%; in the test on PC3 (Prostate Cancer) it was less than 50%.

With `CCCC(Nc1cncc(-c2ccc(OCCCN3CCCC3)c(OC)c2)n1)c1cccnc1` (stereo not drawn), the inhibition at 20 µM in test [1] was more than 50%; in test [2], more than 50%; in test [3], more than 50%; with DU145 (Prostate Cancer), less than 50%; in the test on PC3 (Prostate Cancer), less than 50%.

As to `CCCC(Nc1cncc(-c2ccc(OCCCN3CCOCC3)c(OC)c2)n1)c1cccnc1` (stereo not drawn), the inhibition at 20 µM in test [1] was less than 50%; in test [2], more than 50%; in test [3] it was more than 50%; in the test on DU145 (Prostate Cancer) it was less than 50%; with PC3 (Prostate Cancer) it was less than 50%.

For the compound `CCCC(Nc1cncc(-c2ccc(NC(=O)NCCCN(CC)CC)c(OC)c2)n1)c1cccnc1` (stereo not drawn), the inhibition at 20 µM in test [1] is less than 50%; in test [2], more than 50%; in test [3], more than 50%; in the test with DU145 (Prostate Cancer), less than 50%; with PC3 (Prostate Cancer) it was less than 50%.

Take `CCCC(Nc1cncc(-c2ccc(CO)c(OC)c2)n1)c1cccnc1` (stereo not drawn): the inhibition at 20 µM in test [1] is more than 50%; in test [2], more than 50%; in test [3], more than 50%; in the test with DU145 (Prostate Cancer) it was less than 50%; in the test on PC3 (Prostate Cancer), less than 50%.

For the compound `CCC[C@H](Nc1cncc(-c2ccc(NC(=O)CN(C)C)c(OC)c2)n1)c1cccnc1`, the inhibition at 20 µM (in test [1]; in test [2]; in test [3]; in the test with DU145 (Prostate Cancer); in the test on PC3 (Prostate Cancer)) was more than 50% throughout.

For `CCCC(Nc1cncc(-c2ccc(C(=O)NCCCCCN)c(C)c2)n1)c1cccnc1` (stereo not drawn), the inhibition at 20 µM in test [1] was more than 50%; in test [2] it was more than 50%; in test [3], more than 50%; with DU145 (Prostate Cancer) it was less than 50%; with PC3 (Prostate Cancer), less than 50%.

In the case of `COc1cc(-c2ncc(C)c(NC(CCO)c3ccccc3)n2)ccc1O` (stereo not drawn), the inhibition at 20 µM in test [1] was more than 50%; in test [2], more than 50%; in test [3] it was more than 50%; with DU145 (Prostate Cancer) it was more than 50%; in the test on PC3 (Prostate Cancer), less than 50%.

As for `CCCC(Nc1nnc(C)c(-c2cc(OC)c(OC)c(OC)c2)n1)c1ccccc1` (stereo not drawn), the inhibition at 20 µM is more than 50% in test [1]; more than 50% in test [2]; more than 50% in test [3]; less than 50% in the test with DU145 (Prostate Cancer); less than 50% with PC3 (Prostate Cancer).

For `COc1cc(-c2nc(N[C@H](C)c3ccccc3)nnc2C)ccc1O`, the inhibition at 20 µM is more than 50% in test [1]; more than 50% in test [2]; more than 50% in test [3]; less than 50% with DU145 (Prostate Cancer); less than 50% in the test with PC3 (Prostate Cancer).

These data come from patent publication US9732046B2, “Substituted 1,2,4-triazines as tubulin inhibitors” (YM Biosciences Australia Pty Ltd., priority 2003, dated 2017).
